In brackets after ≈: the same amount, converted by molar mass. Read-outs that look alike come from different tables or passages of the source. Bounds are passed on as bounds.

The nature of series [1]: Solubility in first and second solution for disintegration test (Japanese Pharmacopoeia). It counts as physicochemical. The settings on record: for solubility: thermodynamic from solid. The procedure: Solubility of each compound was determined in the first solution for disintegration test according to Japanese Pharmacopoeia (henceforth referred to as the first solution, solution obtained by adding 7 mL of hydrochloric acid and water to 2.00 g of sodium chloride to dissolve sodium chloride and fill up the solution to 1000 mL, pH 1.2) and the second solution for disintegration test according to Japanese Pharmacopoeia (henceforth referred to as the second solution, solution obtained by adding 118 mL of 0.2 mol/L solution of sodium hydroxide to 6.80 g of potassium dihydrogenphosphate, adding water to the mixture to dissolve potassium dihydrogenphosphate and filling up the solution to 1000 mL, pH 6.8).
Each test compound was dissolved in 100% dimethyl sulfoxide (DMSO) at a concentration of 10 mM, and 50 μL of the solution was lyophilized. The lyophilized test compound was added with 250 μL of the first solution or second solution, and the mixture was stored at room temperature for 12 hours or longer under light shielding, and filtered (0.7 μm). The filtrate was taken in a volume of 90 μL, and added with 50% DMSO (90 μL) to obtain a two-fold diluted solubility sample. The two-fold dilution solubility sample was taken in a volume of 20 μL, and added with 50% DMSO (180 μL) to obtain a […] diluted solubility sample. Solubility of each test sample was determined by quantifying the test compound in the resulting diluted solubility test samples using high-performance liquid chromatography.

For series [2], the system named is NCI-H460 (human lung cancer cell line). The series is described as follows: Anti-cell activity (MTT) against human tumor cell line NCI-H460. The following applies: 72 h, NCI-H460, cultured three days, read-out: NCI-H460 (GI50 value, ng/mL). It counts as cell-based. The procedure: (§1) Three types of human tumor cell lines (all of the cells were obtained from American Type Culture Collection) were seeded on 96-well microplates as follows.
(§2) NCI-H460 (human lung cancer cell line): 5.0×10^2 cells/190 μL/well HCT-15 (P glycoprotein (P-gp) expressing human colon cancer cell line, J. Natl. Cancer Inst., 2001, 93:1234-1245): 1.0×10^3 cells/190 μL/well HCT116 (human colon cancer cell line): 1.0×10^3 cells/190 μL/well On the next day, each test compound was dissolved in 100% dimethyl sulfoxide (DMSO) at a concentration of 10 mg/mL. This solution was diluted with 0.01% Cremophor EL-PBS(−) (Cremophor EL: Sigma Chemical Co., St. Louis, Mo., USA, PBS: Invitrogen Corp., Carlsbad, Calif., USA), and 10 μL of the diluted solution was added to each well (final concentration: 100 to 0.000381 ng/mL). The cells were cultured for three days, and then […] of a 5 mg/mL solution of 3-(4,5-dimethylthiazol-2-yl)-2,5-diphenyl-2H-tetrazolium bromide (MTT, Sigma Chemical Co.) was added to each well. The cells were further cultured for 4 hours, and then the medium was removed by centrifugation. By adding 150 μL of DMSO to each well, the produced formazan product was dissolved. The absorbance of the solution was measured at 540 nm. The drug concentration suppressing cell proliferation of the drug addition group to 50% of the cell proliferation of the drug free group (GI50 value, ng/mL) was calculated, and used as an index of anti-cell activity.

Series [3] has as its system HCT116 (human colon cancer cell line). As to the kind of experiment: Anti-cell activity (MTT) against human tumor cell line HCT116. Type of series: cell-based. The settings on record: HCT-116, 72 h, HCT116, cultured three days, read-out: HCT116 (GI50 value, ng/mL). As to the method:
as §1, §2

The next series deals with B16 melanoma BL6. As to the kind of experiment: Antitumor effect in mice subcutaneously transplanted with B16 melanoma BL6. The settings on record: for Therapeutic index: MTD/MED; for Effective dose range: range from MED to MTD, antitumor effect of 58% or more considered effective. Type of series: in vivo, Mice (C57BL/6). From the text: (§3) Mice (C57BL/6, Charles River Japan) were subcutaneously transplanted with B16 melanoma BL6 (Cancer Res., Poste, G., Fidler, I. J. et al., 1980, 40:1636; Bioorg. Med. Chem. Lett., Takeda, Y. et al., 2003, 13:185-190), or M5076 (obtained from Japanese Foundation for Cancer Research), which is a histiocytoma expressing P-gp. Four days after the transplantation in the case of B16 melanoma BL6, or 8 to 10 days after the transplantation in the case of M5076, each test compound suspended in a 0.5% aqueous solution of carboxymethylcellulose sodium, or dissolved in EtOH:Tween 80:5% glucose=5:5:90 (v/v %) was orally (po) or intravenously (iv) administered to the mice. Ten days after the administration in the case of B16 melanoma BL6, or 8 to 10 days after the administration in the case of M5076, the mice were dissected, and tumor weights were measured. The antitumor effect was calculated in accordance with the following equation.
(§4) [1−(Average tumor weight of compound administration group/average tumor weight of solvent administration group)]×100
(§5) An antitumor effect of 58% or more was considered effective (Int. J. Cancer, 1989, 43:637-44), and the maximum tolerance dose (MTD, maximum dose not causing death, mg/kg) and minimum effective dose (MED, mg/kg) showing effectiveness were obtained, respectively. The therapeutic index was calculated in accordance with the equation: MTD/MED.
(§6) ND means that the test was not performed. The effective dose range means the range of from MED to MTD.

Series [4] has as its system HCT-15 (P glycoprotein (P-gp) expressing human colon cancer cell line). The series is described as follows: Anti-cell activity (MTT) against human tumor cell line HCT-15. Type of series: cell-based. The following applies: 72 h, HCT-15 (P-gp expressing), cultured three days, read-out: HCT-15 (GI50 value, ng/mL). As to the method:
as §1, §2

For series [5], the system named is M5076 (histiocytoma expressing P-gp). The series is described as follows: Antitumor effect in mice subcutaneously transplanted with M5076. It counts as in vivo, Mice (C57BL/6). The following applies: for Therapeutic index: MTD/MED; for Effective dose range: range from MED to MTD, antitumor effect of 58% or more considered effective.
Description: as §3, §4, §5, §6

Where [6] appears, read: aqueous buffer, second solution for disintegration test, pH 6.8, room temperature, 12 hours or longer, read-out: Solubility (μg/mL) pH 6.8.
Where [7] appears, read: simulated gastric fluid, first solution for disintegration test, pH 1.2, room temperature, 12 hours or longer, read-out: Solubility (μg/mL) pH 1.2.
[8] abbreviates: first solution for disintegration test, pH 1.2, room temperature, 12 hours or longer.
Where [9] appears, read: second solution for disintegration test, pH 6.8, room temperature, 12 hours or longer.

For the molecule `CC(=O)O[C@@]12CO[C@@H]1CC[C@@]1(C)[C@@H]3O[C@H](CN4CCC4)O[C@@H]3C3=C(C)[C@@H](OC(=O)[C@H](O)[C@@H](NC(=O)OC(C)(C)C)c4ccccn4)C[C@@](O)([C@@H](OC(=O)c4ccccc4)[C@@H]12)C3(C)C` [Example 1, (1S,2S,3R,4S,5R,8R,9S,10R,13S)-4-(Acetoxy)-9,10-[(1S)-2-(azetidino)ethylidenedioxy]-2-(benzoyloxy)-5,20-epoxy-1-hydroxytax-11-en-13-yl (2R,3S)-3-(tert-butoxycarbonylamino)-2-hydroxy-3-(2-pyridyl)propionate], the solubility in series [1] (setting [6]) is 170 µg/mL (≈ 194 µM); in series [1] (setting [7]), 1200 µg/mL (≈ 1370 µM). Moreover, the GI50 in series [2] is 0.19 ng/mL (≈ 0.000217 µM); in series [3], 0.244 ng/mL (≈ 0.000279 µM); in series [4], 1.14 ng/mL (≈ 0.0013 µM). For the same molecule, the Therapeutic index in the series on B16 melanoma BL6 (B16 Melanoma BL6, po) is listed as 2.9.

`CC(=O)O[C@@]12CO[C@@H]1CC[C@@]1(C)[C@@H]3O[C@H](CN4CCC4)O[C@@H]3C3=C(C)[C@@H](OC(=O)[C@H](O)[C@@H](NC(=O)OC(C)(C)C)c4ncccc4F)C[C@@](O)([C@@H](OC(=O)c4ccccc4)[C@@H]12)C3(C)C` [Example 2, (1S,2S,3R,4S,5R,8R,9S,10R,13S)-4-(Acetoxy)-9,10-[(1S)-2-(azetidino)ethylidenedioxy]-2-(benzoyloxy)-5,20-epoxy-1-hydroxytax-11-en-13-yl (2R,3S)-3-(tert-butoxycarbonylamino)-3-(3-fluoro-2-pyridyl)-2-hydroxypropionate]: the solubility in series [1] (setting [6]) is 170 µg/mL (≈ 190 µM); in series [1] (setting [7]), 1100 µg/mL (≈ 1230 µM). Also, the results for the GI50 in series [2], in series [3] and in series [4] were 0.606 ng/mL (≈ 0.000678 µM), 0.669 ng/mL (≈ 0.000748 µM) and 2.31 ng/mL (≈ 0.00258 µM), respectively. In addition, the Therapeutic index was determined as 1.0 in series [5] (M5076, iv); 2.0 in series [5] (M5076, po); 2.9 with B16 melanoma BL6 (B16 Melanoma BL6, iv); 2.9 with B16 melanoma BL6 (B16 Melanoma BL6, po). Besides, the “Effective dose range” value is 14.7 mg/kg in series [5] (M5076, iv) and 13.7 to 28 mg/kg in series [5] (M5076, po).

On to `CC(=O)O[C@@]12CO[C@@H]1CC[C@@]1(C)[C@@H]3O[C@H](CN4CC(C)(O)C4)O[C@@H]3C3=C(C)[C@@H](OC(=O)[C@H](O)[C@@H](NC(=O)OC(C)(C)C)c4ccccn4)C[C@@](O)([C@@H](OC(=O)c4ccccc4)[C@@H]12)C3(C)C` [Example 11, (1S,2S,3R,4S,5R,8R,9S,10R,13S)-4-(Acetoxy)-2-(benzoyloxy)-5,20-epoxy-1-hydroxy-9,10-[(1S)-2-(3-hydroxy-3-methylazetidino)ethylidenedioxy]tax-11-en-13-yl (2R,3S)-3-(tert-butoxycarbonylamino)-2-hydroxy-3-(2-pyridyl)propionate], for which the solubility in series [1] (setting [6]) was 170 µg/mL (≈ 188 µM); in series [1] (setting [7]), 1300 µg/mL (≈ 1430 µM). The GI50 in series [2] was 0.109 ng/mL (≈ 0.00012 µM); in series [3] it was 0.173 ng/mL (≈ 0.000191 µM); in series [4], 4.21 ng/mL (≈ 0.00465 µM). In the series on B16 melanoma BL6 (B16 Melanoma BL6, po), the Therapeutic index stood at 5.9.

As for `CC[C@H](NC(=O)OC(C)(C)C)[C@@H](O)C(=O)O[C@H]1C[C@@]2(O)[C@@H](OC(=O)c3ccccc3)[C@H]3[C@@](C)(CC[C@H]4OC[C@]43OC(C)=O)[C@@H]3O[C@H](CN4CCC4)O[C@@H]3C(=C1C)C2(C)C` [Example 37, (1S,2S,3R,4S,5R,8R,9S,10R,13S)-4-(Acetoxy)-9,10-[(1S)-2-(azetidino)ethylidenedioxy]-2-(benzoyloxy)-5,20-epoxy-1-hydroxy-tax-11-en-13-yl (2R,3S)-3-(tert-butoxycarbonylamino)-2-hydroxypentanoate], the “Solubility (μg/mL) pH 1.2” value in series [1] (setting [8]) is given as 670 μg/mL. In series [1] (setting [9]), the “Solubility (μg/mL) pH 6.8” value amounted to 210 μg/mL. The Therapeutic index is on record as 1.4 in series [5] (M5076, iv); 4.2 in the series on B16 melanoma BL6 (B16 Melanoma BL6, iv); 2.0 in the series with B16 melanoma BL6 (B16 Melanoma BL6, po). Moreover, the “Effective dose range” value in series [5] (M5076, iv) was 14.7 to 21.0 mg/kg; in the series on B16 melanoma BL6 (B16 Melanoma BL6, iv) it was 7.21 to 30.0 mg/kg; with B16 melanoma BL6 (B16 Melanoma BL6, po), 14.7 to 30.0 mg/kg.

In the case of `CC(=O)O[C@@]12CO[C@@H]1CC[C@@]1(C)[C@@H]3O[C@H](CN4CCC4)O[C@@H]3C3=C(C)[C@@H](OC(=O)[C@H](O)[C@@H](NC(=O)OC(C)(C)C)c4ncco4)C[C@@](O)([C@@H](OC(=O)c4ccccc4)[C@@H]12)C3(C)C` [Example 41, (1S,2S,3R,4S,5R,8R,9S,10R,13S)-4-(Acetoxy)-9,10-[(1S)-2-(azetidino)ethylidenedioxy]-2-(benzoyloxy)-5,20-epoxy-1-hydroxytax-11-en-13-yl (2R,3R)-3-(tert-butoxycarbonylamino)-2-hydroxy-3-(2-oxazolyl)propionate], the “Solubility (μg/mL) pH 1.2” value in series [1] (setting [8]) was found to be 910 μg/mL. Besides, the “Solubility (μg/mL) pH 6.8” value in series [1] (setting [9]) is listed as 370 μg/mL. The Therapeutic index turned out to be 1.4 in series [5] (M5076, iv); 4.2 in the series on B16 melanoma BL6 (B16 Melanoma BL6, iv); 2.9 in the series with B16 melanoma BL6 (B16 Melanoma BL6, po). Also, the “Effective dose range” value in series [5] (M5076, iv) was 17.5 to 25.0 mg/kg; in the series with B16 melanoma BL6 (B16 Melanoma BL6, iv) it was 5.29 to 22.0 mg/kg; in the series with B16 melanoma BL6 (B16 Melanoma BL6, po), 8.58 to 25.0 mg/kg.

Regarding `CC(=O)O[C@H]1C(=O)[C@@]2(C)[C@H]([C@H](OC(=O)c3ccccc3)[C@]3(O)C[C@H](OC(=O)[C@H](O)[C@@H](NC(=O)c4ccccc4)c4ccccc4)C(C)=C1C3(C)C)[C@]1(OC(C)=O)CO[C@@H]1C[C@@H]2O` [Paclitaxel, reference compound], the solubility in series [1] (pH 1.2, simulated gastric fluid) is less than 4 µg/mL; in series [1] (pH 6.8, aqueous buffer), less than 4 µg/mL. In addition, the figures for the GI50 in series [2], in series [3] and in series [4] were 1.87 ng/mL (≈ 0.00219 µM), 1.71 ng/mL (≈ 0.002 µM) and more than 100 ng/mL, respectively.

Source of the values: patent US20090186868A1, “Taxane Compound Having Azetidine Ring Structure” (Daiichi Sankyo Company Limited, priority 2005, published 2009).
